In patent US20220089540A1 (Board of Trustees of Michigan State University, priority 2019, published 2022):
Values joined by “and” are separate entries in the source; they are usually repeats but may differ in a detail not shown here. Equal values may be shown once. Read-outs that look alike come from different tables or passages of the source. Values belong to the compound of their own block, whether it stands above or below them.

Key:
PD-L1 = PD-L1 induction in macrophages or RAW264.7 cells with cancer cell conditioned media (flow cytometry); type: cell-based, mouse; settings: for PD-L1: Table 2, Control 39.8, higher numbers indicate better upregulation; for PD-L1 Levels: Table 4, Control 43.3
Description: RAW 264.7 mouse macrophage-like (ATCC) and E18-14C-27 (Wu et al., Cancer Res. 62, 6376-6380 (2002)) cells were cultured in DMEM supplemented with 10% fetal bovine serum (FBS). RAW 264.7 cells were cultured at 50000/well in a 6 well plate for 24 hours to determine PD-L1 levels. E18-14C-27 cells were cultured for 72 hours in the presence of LG268 for protein levels. Conditioned media was collected from E18-14C-27 at 60-70% confluence for 24 hours; media was then collected and centrifuged at 900 rpm for 5 minutes to eliminate any cell debris.
For PD-L1 staining, RAW 264.7 cells were plated at 25000 cells/ml in 6 well plates for 24 hours before adding conditioned media from E18-14C-27 and LG268. RAW 264.7 cells were cultured for additional 24 hours with E18-14C-27 conditioned media and LG268. […] THP-1 cells were stained and analyzed for the levels of PD-L1 following the same protocol.
Inhibitory receptors on lymphocytes such as PD-1 (programmed cell death protein 1) are important immune checkpoints that protect against autoimmunity as the interaction between PD-L1 (ligand) and the PD-1 receptor expressed on immune cells suppresses T cell activity. Immuno-oncology is revolutionizing cancer treatment, and enormous research efforts are ongoing to identify drugs that upregulate PD-L1 so that they can be combined with checkpoint inhibitors to boost efficacy. Macrophages or RAW264.7 cells are treated with conditioned media from cancer cells and rexinoids, and PD-L1 expression determined by flow cytometry. Higher numbers indicate better upregulation of PD-LI.
Using methods described herein, macrophages or RAW264.7 cells were treated with selected rexinoids and with conditioned media from cancer cells. Structures of the rexinoids are shown below.
PD-L1 expression was determined by flow cytometry.

[1] = system: inducible nitric oxide synthase (iNOS); experiment: iNOS suppression / NO assay in LPS-stimulated macrophages or RAW264.7 cells (Griess reaction); type: cell-based, mouse
Description: Macrophages or RAW264.7 like-cells were treated with various concentrations of rexinoids and stimulated with lipopolysaccaride (LPS) to activate inducible nitric oxide synthase (iNOS) to produce nitric oxide. This in vitro iNOS assay was rapid, reproducible, quantitative and predictive. Nitric oxide is implicated in the apoptosis of cancer cells via regulation of RXRs. There is a tight correlation between the % reduction of iNOS and efficacy in preclinical lung cancer models. Lower numbers indicate higher efficacy.
RAW264.7 cells were incubated with 300 nM rexinoids and stimulated with 1-2 ng/ml lipopolysaccaride (LPS) for 24 hours to activate inducible nitric oxide synthase (iNOS) to produce nitric oxide. Nitric oxide released into the media was measured by the Griess reaction.
Also, for Table 6, the iNOS suppression is the percent of the LPS-stimulated control where the compounds were measured at 100 nM or 300 nM.
Macrophages or RAW264.7 cells were treated with various concentrations of rexinoids listed in Table 7 and stimulated with lipopolysaccaride (LPS) to activate inducible nitric oxide synthase (iNOS) to produce nitric oxide. Nitric oxide (NO) is implicated in the apoptosis of cancer cells via regulation of RXRs. There is a tight correlation between the % reduction of iNOS and efficacy in preclinical lung cancer models. The in vitro iNOS assay is rapid, reproducible, quantitative and predictive, as NO production is measured in culture medium using the Griess reaction. Values are either presented as % inhibition or IC50 values.

human RXRa = target: T1, human RXRa (Homo sapiens, UniProt P19793); experiment: RXR activation luciferase reporter assay; type: cell-based; settings: luciferase, Control 0, higher numbers indicate higher potency
T1 sequence (P19793 1-462): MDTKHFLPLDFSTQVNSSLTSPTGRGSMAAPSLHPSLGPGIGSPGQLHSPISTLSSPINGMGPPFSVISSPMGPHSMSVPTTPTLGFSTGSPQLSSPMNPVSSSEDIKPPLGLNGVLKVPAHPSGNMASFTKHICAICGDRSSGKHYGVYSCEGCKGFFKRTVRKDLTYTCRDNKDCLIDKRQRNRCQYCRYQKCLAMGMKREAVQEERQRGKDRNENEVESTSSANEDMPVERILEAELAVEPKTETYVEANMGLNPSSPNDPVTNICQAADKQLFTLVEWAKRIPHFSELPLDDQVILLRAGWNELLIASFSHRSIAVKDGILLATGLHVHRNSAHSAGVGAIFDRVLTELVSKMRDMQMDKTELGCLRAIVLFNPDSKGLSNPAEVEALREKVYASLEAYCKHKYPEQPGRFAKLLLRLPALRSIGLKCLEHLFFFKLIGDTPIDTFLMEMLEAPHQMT
Text: Rexinoids are agonists for the retinoid X receptors (RXRs). In this assay, the human RXRa promoter is functionally linked to a luciferase reporter gene. Changes in luciferase expression served as a sensitive surrogate measure of RXR activity. Higher numbers indicate higher potency.

SREBP = SREBP induction in human liver (HepG2) cells, RT-PCR; type: cell-based; design: key to SREBP: fold induction vs DMSO control; settings: for SREBP: 300 nM, Control 1.00, lower numbers indicate better safety, Table 2; for SREBP activation: fold induction compared to DMSO, several values per cell, Table 6
Description: The SREBP transcription factor is involved in triglyceride synthesis, and its activation correlates with increased triglycerides in vivo. […] Lower numbers indicate better safety. […] Lower numbers indicate better safety. Also, for Table 6, SREBP activation was measured as fold induction compared to DMSO, where a lower value indicates the compound is an improvement over a control.

LogD at pH 7.4 = type: physicochemical; settings: pH 7.4 buffer
Description: Note that for Table 6, Log D is the distribution constant, which is descriptor of the lipophilicity of a molecule. This was determined using an aqueous phase that was adjusted to pH 7.4 using a buffer.

[2] = system: mammary gland tumors of MMTV-Neu mice; experiment: MMTV-Neu mouse model of HER2 positive breast cancer, rexinoid in diet; settings: 100 mg/kg diet; LG268 5 days, CW-V-125 10 days; western blot and/or immunohistochemistry
Description: Tumors or mammary glands were homogenized in EBC buffer (1M Tris pH 8, 5M NaCl) with the same protease inhibitors and 10% NP-40 and incubated on ice for 30 min. Protein concentrations were determined by the BCA assay (Sigma-Aldrich). Proteins were resolved by SDS-PAGE, transferred to a nitrocellulose membrane and analyzed with the following antibodies: vinculin, p-STAT1, p-STAT3, p-STAT5 and mouse and rabbit secondary antibodies (Cell Signaling); PD-1, CD206 (Abcam); PD-L1 (R&D). ImageJ was used to quantify the immunoblots, and results were plotted and statistically analyzed using Prism 6. All images shown are representative of 3 independent experiments.
One third of the tumor, mammary gland and spleen removed from MMTV-neu or MMTV-PyMT mice were minced separately and incubated in digestion media consisting of collagenase (300 U/ml, Sigma), dispase (1 U/ml, Worthington), and DNAse (2 U/ml, Calbiochem) for 30 minutes at 37° C. with stirring. Cells were then passed through a 40 μm cell strainer (BD Falcon), and red blood cells eliminated with lysis solution. […] Propidium iodide staining was used to exclude dead cells.
One third of the tumor, spleen and one mammary was removed from MMTV-neu and PyMT mice and fixed in 10% phosphate-buffered formalin for 48 hours, embedded in paraffin blocks, and sectioned (5-6 μm). Hydrogen peroxide was used to quench endogenous peroxidase activity. Sections were immunostained with antibodies raised against CD206 (1:200, Abcam), Gr1 (1:40, BM8, R&D), CD8 (1:40, Biolegend), FOXP3 (1:50, EBiosciences), PD-1 (1:100, Abcam), PD-L1 (1:50, Abcam), cleaved caspase 3 (Cell Signaling) and visualized with biotinylated anti-rabbit or anti-rat secondary antibodies (Cell Signaling or Vector Labs). Signal was detected using a DAB substrate (Cell Signaling) following the manufacturer's recommendations. Sections were counterstained with hematoxylin (Vector Labs).
Both rexinoid treatments were 100 mg/kg of diet, which is equivalent to 25 mg/kg of body weight (FIG. 1B).

[3] = Mus musculus, RAW264.7, read-out: NO Assay
[4] = Mus musculus, RAW264.7, 24 h, read-out: iNOS (300 nM)
[5] = Mus musculus, RAW264.7, 24 h, at 300 nM, percent of the LPS-stimulated control, lower is better, Table 6, read-out: iNOS suppression
[6] = Mus musculus, RAW264.7, 125 nM, Control 100, lower numbers indicate higher efficacy, read-out: NO Assay
[7] = Mus musculus, RAW264.7, 500 nM, Control 100, lower numbers indicate higher efficacy, read-out: NO Assay

Compound: CCN(c1ccc(C(=O)O)cc1)c1cc(C(C)(C)C)cc(C(C)(C)C)c1 [Compound 8, 4-[(3,5-di-tert-butylphenyl)(ethyl)amino]benzoic Acid]
PD-L1 (PD-L1; 100 nM): 31.2
activity at 0.125 µM [1, 3]: > 80%
activity at 0.5 µM [1, 3]: 31.5%
RXR assay (human RXRa; 100 nM): 1009
RXR assay (human RXRa; 2500 nM): 23514
SREBP (SREBP): 1.95

Compound: CCN(c1ccc2c(c1)C(C)(C)CCC2(C)C)c1ncc(C(=O)O)cn1 [CW-V-127]
PD-L1 Levels (PD-L1; 100 nM): 65.1
PD-L1 Levels (PD-L1; 1000 nM): 64.5

Compound: CCN(c1cc(C(C)(C)C)cc(C(C)(C)C)c1)c1ncc(C(=O)O)cn1 [Compound 10, 2-[(3,5-di-tert-butylphenyl)(ethyl)amino]pyrimidine-5-carboxylic Acid]
PD-L1 (PD-L1; 100 nM): 32
activity at 0.125 µM [1, 3]: 48.6%
activity at 0.5 µM [1, 3]: 19%
RXR assay (human RXRa; 100 nM): 1007
RXR assay (human RXRa; 2500 nM): 17963
SREBP (SREBP): 1.44

Compound: C=C(c1ccc(C(=O)O)cc1)c1cc(C(C)(C)C)cc(C(C)(C)C)c1 [Compound 3, 4-[1-(3,5-di-tert-butylphenyl)ethenyl]benzoic Acid]
PD-L1 (PD-L1; 100 nM): 26.5
activity at 0.3 µM [1, 4]: ~65%
activity at 0.125 µM [1, 3]: 42.5%
activity at 0.5 µM [1, 3]: 19.8%
RXR assay (human RXRa; 100 nM): 523
RXR assay (human RXRa; 2500 nM): 8163
SREBP (SREBP): 1.14

Compound: CC(C)(C)c1cc(N(CC2CC2)c2ccc(C(=O)O)cn2)cc(C(C)(C)C)c1 [Compound 14, 6-[(cyclopropylmethyl)(3,5-di-tert-butylphenyl)amino]pyridine-3-carboxylic Acid]
PD-L1 (PD-L1; 100 nM): 46.2
activity at 0.125 µM [1, 3]: 78.2%
activity at 0.5 µM [1, 3]: 25.9%
SREBP (SREBP): 2.37

Compound: CCN(c1cc(C(C)(C)C)cc(C(C)(C)C)c1)c1ccc(C(=O)O)cn1 [Compound 9, 6-[(3,5-di-tert-butylphenyl)(ethyl)amino]pyridine-3-carboxylic Acid]
PD-L1 (PD-L1; 100 nM): 39.7
activity at 0.3 µM [1, 4]: ~25%
activity at 0.125 µM [1, 3]: 76.3%
activity at 0.5 µM [1, 3]: 26.8%
SREBP (SREBP): 2.70

logD (LogD at pH 7.4): 2.6
Compound: Cc1cc(OCC(C)C)c(C(C)C)cc1C1(c2ccc(C(=O)O)cn2)CC1

Compound: C=C(c1ccc(C(=O)O)cc1)c1ccc(OCC(C)C)c(C(C)C)c1 [drawing 110]
activity at 0.3 µM [1, 5]: 75%
SREBP activation (SREBP): 2 fold induction
logD (LogD at pH 7.4): 3

Compound: C=C(c1ccc(C(=O)O)cc1)c1cc(C(C)(C)C)cc(C(C)(C)C)c1 [drawing 116]
activity at 0.3 µM [1, 5]: 61%
logD (LogD at pH 7.4): 3.8

Compound: CCN(c1cc(C(F)(F)F)cc(C(F)(F)F)c1)c1ccc(C(=O)O)cn1 [Compound 15, 6-{[3,5-bis(trifluoromethyl)phenyl](ethyl)amino}pyridine-3-carboxylic Acid]
PD-L1 (PD-L1; 100 nM): 34.8
activity at 0.125 µM [1, 3]: 87%
activity at 0.5 µM [1, 3]: 27.9%
SREBP (SREBP): 1.11

RXR assay (human RXRa; 100 nM): 1077
RXR assay (human RXRa; 2500 nM): 558
Compound: C/C(=C/C=C/C(C)=C/C(=O)O)c1cc(C(C)(C)C)cc(C(C)(C)C)c1OCC(F)F [LG101506, reference compound]
PD-L1 (PD-L1; 100 nM): 67.2
NO Assay ([1]; 125 nM, Control 100, lower numbers indicate higher efficacy): 56.3
NO Assay ([1]; 500 nM, Control 100, lower numbers indicate higher efficacy): 16.3
SREBP (SREBP): 1.12

Compound: CC(/C=C/[C@@H]1C[C@]1(C)c1ccc2c(c1)C(C)(C)CCC2(C)C)=C\C(=O)O [VTP194204]
PD-L1 Levels (PD-L1; 100 nM): 63.8
PD-L1 Levels (PD-L1; 1000 nM): 70.9

Compound: CCN(c1ccc(C(=O)O)cn1)c1cc(C(C)(C)C)ccc1C [Compound 12, 6-[(5-tert-butyl-2-methylphenyl)(ethyl)amino]pyridine-3-carboxylic Acid]
PD-L1 (PD-L1; 100 nM): 45.8
activity at 0.125 µM [1, 3]: 44.2%
activity at 0.5 µM [1, 3]: 16.7%
SREBP (SREBP): 1.69

Compound: CCN(c1ccc(C(=O)O)cn1)c1cc2c(cc1C)C(C)(C)CCC2(C)C [CW-V-125]
PD-L1 Levels (PD-L1; 100 nM): 72.5
PD-L1 Levels (PD-L1; 1000 nM): 69.9
PD-L1 expression in tumors vs control [2]: increases

logD (LogD at pH 7.4): 2.8
Compound: CC(C)(C)c1cc(C(C)(C)C)cc(C2(c3ccc(C(=O)O)cn3)CC2)c1

Compound: CCOc1c(N(CC)c2ccc(C(=O)O)cc2)cc(C(C)(C)C)cc1C(C)(C)C [drawing 107]
activity at 0.3 µM [1, 5]: 60%
SREBP activation (SREBP): 2.4 fold induction

Compound: CC(C)(C)c1cc(N(CC2CC2)c2ccc(C(=O)O)cn2)cc(C(C)(C)C)c1 [drawing 118]
activity at 0.1 µM ([1]; Mus musculus, RAW264.7, 24 h, at 100 nM, percent of the LPS-stimulated control, lower is better, Table 6): 19%
activity at 0.3 µM [1, 5]: 13%
logD (LogD at pH 7.4): 3.4

Compound: CC(C)(C)c1cc(-n2c(C(F)(F)F)nc3cc(C(=O)O)ccc32)cc(C(C)(C)C)c1 [drawing 109]
activity at 0.3 µM [1, 5]: 45%
SREBP activation (SREBP): 3.4 fold induction and 2.1 fold induction

RXR assay (human RXRa; 100 nM): 13422
RXR assay (human RXRa; 2500 nM): 24350
Compound: CCCCN(c1cc(C(C)(C)C)cc(C(C)(C)C)c1)c1ccc(C(=O)O)cn1 [Compound 19]
PD-L1 (PD-L1; 100 nM): 50.2
activity at 0.125 µM [1, 6]: 45.6%
activity at 0.5 µM [1, 7]: 9.4%
SREBP (SREBP): 4.77

Compound: CC(C)(C)c1cc(-n2c(C(F)(F)F)nc3cc(C(=O)O)ccc32)cc(C(C)(C)C)c1 [Compound 7, 1-(3,5-di-tert-butylphenyl)-2-(trifluoromethyl)-1H-1,3-benzodiazole-5-carboxylic Acid]
PD-L1 (PD-L1; 100 nM): 44.2
activity at 0.3 µM [1, 4]: 55%
activity at 0.125 µM [1, 3]: 38.7%
activity at 0.5 µM [1, 3]: 23.6%
SREBP (SREBP): 1.57

RXR assay (human RXRa; 100 nM): 16063
RXR assay (human RXRa; 2500 nM): 26703
Compound: CCCN(c1cc(C(C)(C)C)cc(C(C)(C)C)c1)c1ccc(C(=O)O)cn1 [Compound 13, 6-[(3,5-di-tert-butylphenyl)(propyl)amino]pyridine-3-carboxylic Acid]
PD-L1 (PD-L1; 100 nM): 67.9
activity at 0.125 µM [1, 6]: 94.5%
activity at 0.5 µM [1, 7]: 32%
SREBP (SREBP): 2.44

SREBP activation (SREBP): 2.0 fold induction
Compound: C=C(c1ccc(C(=O)O)cc1)c1cc2c(cc1C)CCCC2(C)C
activity at 0.3 µM [1, 5]: 55%
